Experimental data published in patent US10603322B2, “Therapeutic targeting of casein kinase 1δ in breast cancer” (The Scripps Research Institute, priority 2015, dated 2020).

How the values were obtained:
[1] = test system: SKBR3 (HER2+) tumor xenografts; assay: Established orthotopic tumor xenograft; type: in vivo, nude mice; conditions: 20 mg/kg daily i.p.; tumors 100-mm^3 before treatment
From the text: (§1) All animal studies are approved by the Scripps Florida IACUC. Stable pools of MDA-MB-231-Luc, MDA-MB-231, MDA-MB-468, SKBR3 or BT474 cells were established by injection of 2×10^6 cancer cells into the mammary fat pads of 6-week old female athymic nude mice (Charles River Laboratories). Establishment of BCM-4013 patient derived xenografts were as described (19). Briefly, fresh xenograft tumor fragments (˜1 mm^3) were transplanted into the cleared mammary fat pad of recipient SCID/Bg mice (Charles River Laboratories). Mice were treated with SR-3029 or vehicle (10:10:80, DMSO:Tween-80:Water) at 20 mg/kg daily by i.p. injection. Tumor volumes were measured as the indicated intervals using calipers or by luminescence imaging using the IVIS 100 imager (exposure time, 1-60 sec; binning 8; field of view 15-cm; f/stop 1; open filter) following subcutaneous injection of luciferin (15 mg/ml, Goldbio Technology). Average radiance (p/s/cm^2/sr) was determined from tumor region-of-interest (ROI) using Living-Image (Xenogen) analysis software.

[2] = test system: MDA-MB-468 (TNBC) tumor xenografts; assay: Established orthotopic tumor xenograft; type: in vivo, nude mice; conditions: 20 mg/kg daily i.p.; tumors 100-mm^3 before treatment
From the text: as §1

[3] = test system: BT474 (HER2+) tumor xenografts; assay: Established orthotopic tumor xenograft; type: in vivo, nude mice; conditions: 20 mg/kg daily i.p.; tumors 100-mm^3 before treatment
From the text: as §1

[4] = test system: breast cancer cell types overexpressing CK1δ; assay: Cell proliferation assay (Cell-Titer Glo, 72 hr); type: cell-based; conditions: Homo sapiens
Procedure: (§2) Cell proliferation was measured 72 hr after SR-3029 or vehicle treatment using Cell-Titer Glo (Promega) according to the manufacturers' instructions. EC50 values were determined using non-linear regression and a four-parameter algorithm (GraphPad Prism5). For clonogenic assays, cells were plated in 6-well dishes in triplicate at a density of 500-1000 cells per well. After overnight incubation, SR-3029 or vehicle (DMSO) was added to media for 72 hr and cells were allowed to grow out for 7-10 days, during which media was changed every 2-3 days in the absence of compound. Colonies were fixed in 4% paraformaldehyde/PBS and stained with 0.5% methylene blue in 50% ethanol for 1 hr at room temperature and de-stained with water. Colonies with greater than 50 cells were counted using a low magnification light microscope.

MCF7 breast cancer cells [5] = assay: Clonogenic growth assay; type: cell-based, human
Procedure: as §2

MDA-MB-231 cells = assay: Clonogenic growth assay; type: cell-based, human
Procedure: as §2

β-catenin = β-catenin expression by immunoblot in breast cancer cells; type: cell-based, human; conditions: 18 hr
Procedure: SDS-PAGE gel electrophoresis was performed using NuPAGE 4-12% Bis-Tris gels (Invitrogen) and transferred to PVDF membranes by semi-dry transfer using trans-blot transfer medium (Biorad). Membranes were blocked in Odyssey blocking buffer (LI-COR Biosciences) and incubated overnight at 4° C. with primary antibodies. After repeated washes with TBST (20 mM Tris, pH 7.6, 140 mM NaCl and 0.1% Tween-20) blots were incubated with the appropriate IRDye-conjugated secondary antibody (LI-COR Biosciences) and imaged using the LI-COR Odyssey. Bands were quantified using the Odyssey software (LI-COR Biosciences). The following antibodies were used in this study: CK1δ and Histone H4 (Abcam), CK1ε, c-Myc (9E10), Cyclin-D1 and β-actin (Santa Cruz), β-catenin (Cell Signaling), GAPDH (Millipore) and CD44 (R&D Systems).

[6] = test system: Wnt-3a-directed induction of the TCF reporter; assay: Wnt-3a-induced TCF-dependent luciferase reporter assay in HEK293T cells; type: cell-based, human
Procedure: MDA-MB-231 or HEK293 cells stably expressing the TCF luciferase reporter 7TFP (39) were transfected with β-catenin-S33Y or empty vector (pcDNA). After 18 hr cells were seeded onto a 96-well plate at a density of 6000 cells/well. After 24 hr cells were treated with SR-3029 or vehicle and incubated for 6 hr prior to addition of 1 μg/ml recombinant human Wnt3a (R&D Systems) or PBS. After 3 hr, reporter assays were performed using BriteLite Plus (Perkin Elmer), which was added in equal volume directly to the media and luminescence read using a Spectramax plate reader (Molecular Devices).

BCM-4013 PDX tumors = assay: Patient-derived xenograft (PDX) model; type: in vivo, SCID/Bg mice; conditions: 20 mg/kg daily i.p.
From the text: as §1
For apoptotic detection in cryosections tumors and small intestines were fixed in 10% buffered formalin for 2 hr, incubated in 20% sucrose overnight and embedded in OCT. Frozen sections ([…]) were mounted and stained using the ApopTag Red In Situ Kit according to the manufacturer instructions (CHEMICON). […]

CK1δ and CK1ε = conditions: cited from earlier work
FLT3 = FLT3 (Homo sapiens, UniProt P36888); conditions: cited from earlier work
Sequence of FLT3 (P36888 564-993 limits assumed): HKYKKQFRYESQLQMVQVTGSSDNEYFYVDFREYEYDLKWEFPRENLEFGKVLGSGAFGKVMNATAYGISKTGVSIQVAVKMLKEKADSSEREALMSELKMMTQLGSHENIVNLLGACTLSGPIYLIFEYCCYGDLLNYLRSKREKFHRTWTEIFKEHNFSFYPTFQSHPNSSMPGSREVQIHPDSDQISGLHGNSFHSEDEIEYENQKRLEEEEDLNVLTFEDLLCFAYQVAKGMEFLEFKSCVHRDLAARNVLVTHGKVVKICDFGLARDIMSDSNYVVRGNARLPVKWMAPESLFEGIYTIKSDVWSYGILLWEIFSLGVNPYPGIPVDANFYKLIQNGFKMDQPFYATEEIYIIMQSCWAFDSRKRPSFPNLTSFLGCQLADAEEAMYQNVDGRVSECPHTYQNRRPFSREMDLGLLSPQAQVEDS

T47D breast cancer cells = assay: Cell proliferation assay (Cell-Titer Glo, 72 hr); type: cell-based, human; conditions: low CK1δ; versus CK1δ overexpressing cells
Procedure: as §2

MCF10A cell line = assay: Cell proliferation assay (Cell-Titer Glo, 72 hr); type: cell-based, human; conditions: low CK1δ; versus CK1δ overexpressing cells
Procedure: as §2

MCF7 breast cancer cells [7] = assay: Cell proliferation assay (Cell-Titer Glo, 72 hr); type: cell-based, human; conditions: low CK1δ; versus CK1δ overexpressing cells
Procedure: as §2

[8] = test system: MDA-MB-231 tumor xenografts; assay: Established orthotopic tumor xenograft; type: in vivo, nude mice; conditions: 20 mg/kg daily i.p.
From the text: as §1
For apoptotic detection in cryosections tumors and small intestines were fixed in 10% buffered formalin for 2 hr, incubated in 20% sucrose overnight and embedded in OCT. Frozen sections ([…]) were mounted and stained using the ApopTag Red In Situ Kit according to the manufacturer instructions (CHEMICON). For H&E staining, tissues were fixed in 10% buffered formalin for 48 hr, transferred to 70% ethanol/PBS and embedded in paraffin. Staining was performed on […] sections following deparaffinization (AML Laboratories).

[9] = test system: CK1δ overexpressing breast cancer cells; assay: Apoptosis by PI/Annexin V FACS; type: cell-based, human; conditions: 72 hr treatment
Procedure: 2×10^5 cells seeded in triplicate in 6-well dishes were cultured with SR-3029 or vehicle for 72 hr. Cells were then harvested and stained with Annexin V-FITC and PI using the Annexin V-FITC Apoptosis Detection Kit (BioVision) per the manufacturer's instructions and analyzed using the LSRI II flow cytometer (Becton Dickinson). Staurosporine (Cell Signaling) treated cells (1 μM) were used as positive/compensation controls.

Fc1cccc(-n2cnc3c(NCc4nc5ccc(F)c(F)c5[nH]4)nc(N4CCOCC4)nc32)c1 [SR-3029]
tumor growth [1]: marked tumor growth inhibition
tumor growth [2]: marked tumor growth inhibition
tumor growth [3]: marked tumor growth inhibition
EC50 [4]: 5 to 70 nM
colony forming capacity (MCF7 breast cancer cells [5]): no effect
sensitivity of MCF7 cells with forced overexpression of CK1δ (MCF7 breast cancer cells [5]; short-term and long-term growth assays, CK1δ vs GFP): sensitizes them to SR-3029
clonogenic growth and survival (MDA-MB-231 cells): completely blocked
clonogenic growth inhibition with forced overexpression of CK1δ (MDA-MB-231 cells; CK1δ overexpressing vs GFP-expressing controls): sufficient to rescue the growth inhibitory effects
expression of the active, nuclear pool of β-catenin (β-catenin; MDA-MB-231, MDA-MB-436, MDA-MB-468 and BT474 cells, 30 nM): markedly reduced
unphosphorylated, active form of β-catenin (ABC) (β-catenin; MDA-MB-231 cells): reduction
Wnt-3a-directed induction of the TCF reporter ([6]; 1 μg/ml Wnt-3a, 3 hr): abolished
TCF reporter activity with constitutively active β-catenin (S33Y) ([6]; forced expression of β-catenin S33Y): refractory
tumor cell apoptosis (TUNEL) (BCM-4013 PDX tumors): triggered tumor cell apoptosis
growth of PDX tumors (BCM-4013 PDX tumors; p=0.0002): significantly inhibited the growth
type of inhibition, potency and selectivity (CK1δ and CK1ε): ATP competitive inhibitor with exceptional potency and selectivity
FLT3 off-target activity (FLT3): common (and weak) off-target
sensitivity in cell proliferation assay (T47D breast cancer cells): 2-3 orders of magnitude less sensitive
sensitivity in cell proliferation assay (MCF10A cell line): 2-3 orders of magnitude less sensitive
sensitivity in cell proliferation assay (MCF7 breast cancer cells [7]): 2-3 orders of magnitude less sensitive and relative insensitivity and refractory
lifespan (Kaplan-Meier survival) [8]: significantly prolonged lifespan
tumor apoptosis (TUNEL) [8]: fulminant apoptosis
tumor growth ([8]; tumors 100-mm^3 before treatment): marked tumor growth inhibition
apoptosis [9]: selectively triggered rapid apoptosis
